Experimental data as given in US20250145589A1, “PYRIDINE DERIVATIVE AND USE THEREOF” (SICHUAN HUIYU PHARMACEUTICAL CO., LTD., priority 2021, published 2025).

Experiments:
Format in all cases: cell-based
[1] = test system: MIA PaCa-2-AMGR drug-resistant cell line; test: MIA PaCa-2-AMGR drug-resistant cell proliferation inhibitory activity test; conditions: 72 h, MIA PaCa-2-AMGR drug-resistant cells, 3 days incubation, CellTiter-Glo
Method in brief: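 Viability was read by CellTiter-Glo luminescence after 3 days of compound exposure (8 points, 5-fold serial dilution), with IC50 derived relative to untreated control. Cells: AMG510-resistant MIA PaCa-2 (selected stepwise to 1 μM AMG510), 4×10^3/well, DMEM + 10% FBS + 2.5% horse serum, 37° C.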

[2] = test system: MIA PaCa-2 cells (KRAS G12C mutant); test: MIA PaCa-2 cell anti-proliferation (CellTiter-Glo); conditions: Homo sapiens, 72 h; MIA Paca-2 cells, 3 days, Table 7; read-out: MIA PaCa-2 (IC50)
Method in brief: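 Viable-cell luminescence (CellTiter-Glo, ≥30 min at 25 °C) measured after a 3-day, 37 °C exposure to compounds at 9 points, 4-fold spaced, in DMEM containing 10% FBS plus 2.5% horse serum. IC50 derived versus no-inhibitor wells.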

[3] = test system: NCI-H358 cells (KRAS G12C mutant); test: NCI-H358 cell proliferation inhibition (CellTiter-Glo); conditions: Homo sapiens, NCI-H358, 72 h; H358 cells (G12C mutation), 3 days, Table 6; read-out: NCI-H358 (IC50)
[4] = test system: NCI-H358-AMGR drug-resistant cell line; test: NCI-H358-AMGR drug-resistant cell proliferation inhibitory activity test; conditions: 72 h; NCI-H358-AMGR drug-resistant cells, 3 days incubation, CellTiter-Glo
Method in brief: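 Luminescent CellTiter-Glo read-out after 3-day, 37° C compound exposure (8 points, 5-fold series) of AMG510-resistant NCI-H358 cells plated at 4×10^3 per well.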

SMILES | IC50 [1] | IC50 [2] | IC50 [3] | IC50 [4]
COc1ncc(-c2ccc3ncnc(N4CCN(C(=O)/C=C/C(C)=O)CC4)c3c2)cc1NS(C)(=O)=O [Example 170, (E)-N-(2-methoxy-5-(4-(4-(4-oxopent-2-enoyl)piperazin-1-yl)quinazolin-6-yl)pyridin-3-yl)methane-sulfonamide] | 183 nM | 118 nM | 61.6 nM | 380 nM
COc1ncc(-c2ccc3ncnc(N4CCC5(CC4)CN(C(=O)/C=C/C(C)=O)C5)c3c2)cc1NS(=O)(=O)c1ccc(F)cc1Cl [Example 171, (E)-2-chloro-4-fluoro-N-(2-methoxy-5-(4-(2-(4-oxopent-2-enoyl)-2,7-diazaspiro[3.5]nonan-7-yl)quinazolin-6-yl)pyridin-3-yl)benzene-sulfonamide] | 32.9 nM | 12.6 nM | 5.7 nM | 41.5 nM
COc1ncc(-c2ccc3ncnc(N4CCN(C(=O)/C=C/C(C)=O)CC4)c3c2)cc1NS(=O)(=O)c1ccncc1C [Example 172, (E)-N-(2-methoxy-5-(4-(4-(4-oxopent-2-enoyl)piperazin-1-yl)quinazolin-6-yl)pyridin-3-yl)-3-methyl-pyridine-4-sulfonamide] | 256 nM | 171 nM | 68.1 nM | 451 nM
COc1ncc(-c2ccc3ncnc(N4CCN(C(=O)/C=C/C(C)=O)C[C@@H]4C)c3c2)cc1NS(=O)(=O)c1sc(C)nc1C [Example 173, (S,E)-N-(2-methoxy-5-(4-(2-methyl-4-(4-oxopent-2-enoyl)piperazin-1-yl)quinazolin-6-yl)pyridin-3-yl)-2,4-dimethyl-thiazole-5-sulfonamide] | 62.6 nM | 9.2 nM | 6.8 nM | 54.7 nM
COc1ncc(-c2ccc3ncnc(N4CCN(C(=O)/C=C/C(C)=O)C[C@@H]4C)c3c2)cc1NS(=O)(=O)c1ccc(F)cc1Cl [Example 174, (S,E)-2-chloro-4-fluoro-N-(2-methoxy-5-(4-(2-methyl-4-(4-oxopent-2-enoyl)piperazin-1-yl)quinazolin-6-yl)pyridin-3-yl)benzene-sulfonamide] | 26.3 nM | 15.6 nM | 15.8 nM | 28.6 nM
COc1ncc(-c2ccc3ncnc(N4CC5CCC(C4)N5C(=O)/C=C/C(C)=O)c3c2)cc1NS(=O)(=O)c1ccc(F)cc1Cl [Example 175, 2-chloro-4-fluoro-N-(2-methoxy-5-(4-(8-((E)-4-oxopent-2-enoyl)-3,8-diazabicyclo [3.2.1]octan-3-yl)quinazolin-6-yl)pyridin-3-yl)benzene-sulfonamide] | 36.7 nM | 22.8 nM | 22.3 nM | 58.1 nM
COc1ncc(-c2ccc3ncnc(N4CC5CCC(C4)N5C(=O)/C=C/C(C)=O)c3c2)cc1NS(=O)(=O)c1sc(C)nc1C [Example 176, N-(2-methoxy-5-(4-(8-((E)-4-oxopent-2-enoyl)-3,8-diazabicyclo [3.2.1]octan-3-yl)quinazolin-6-yl)pyridin-3-yl)-2,4-dimethyl-thiazole-5-sulfonamide] | 48.6 nM | 29.3 nM | 27 nM | 76.1 nM
COc1ncc(-c2ccc3ncnc(N4CCN(C(=O)/C=C/C(C)=O)CC4)c3c2)cc1NS(=O)(=O)c1ccc(Cl)cc1F [Example 177, (E)-4-chloro-2-fluoro-N-(2-methoxy-5-(4-(4-(4-oxopent-2-enoyl)piperazin-1-yl)quinazolin-6-yl)pyridin-3-yl)benzene-sulfonamide] | 36.6 nM | 25.9 nM | 36.1 nM | 48.9 nM
COc1ncc(-c2ccc3ncnc(N4CCC5(CC4)CN(C(=O)/C=C/C(C)=O)C5)c3c2)cc1NS(=O)(=O)c1sc(C)nc1C [Example 178, (E)-N-(2-methoxy-5-(4-(2-(4-oxopent-2-enoyl)-2,7-diazaspiro[3.5]nonan-7-yl)quinazolin-6-yl)pyridin-3-yl)-2,4-dimethyl-thiazole-5-sulfonamide] | 34 nM | 43.1 nM | 25.3 nM | 66.2 nM
COC(=O)c1ncc(-c2ccc3ncnc(N4CCN(C(=O)/C=C/C(C)=O)CC4)c3c2)cc1NS(=O)(=O)c1ccc(F)cc1F [Example 181, methyl (E)-3-((2,4-difluoro-phenyl)sulfonamido)-5-(4-(4-(4-oxopent-2-enoyl)piperazin-1-yl)quinazolin-6-yl)picolinate] | 118 nM | 56.2 nM | 49.7 nM | 284 nM
COc1ccc(Cl)c(S(=O)(=O)Nc2cc(-c3ccc4ncnc(N5CCN(C(=O)/C=C/C(C)=O)CC5)c4c3)cnc2OC)c1 [Example 184, (E)-2-chloro-5-methoxy-N-(2-methoxy-5-(4-(4-(4-oxopent-2-enoyl)piperazin-1-yl)quinazolin-6-yl)pyridin-3-yl)benzene-sulfonamide] | 176 nM | 60.2 nM | 73.8 nM | 135 nM
[2H]C([2H])([2H])Oc1ncc(-c2ccc3ncnc(N4CCN(C(=O)/C=C/C(C)=O)CC4)c3c2)cc1NS(=O)(=O)c1ccc(F)cc1F [Example 191, (E)-2,4-difluoro-N-(2-(methoxy-d3)-5-(4-(4-(4-oxopent-2-enoyl)piperazin-1-yl)quinazolin-6-yl)pyridin-3-yl)benzene-sulfonamide] | 40.8 nM | 54.2 nM | 20.2 nM | 36.4 nM
COc1ncc(-c2ccc3ncnc(C4=CCN(C(=O)/C=C/C(C)=O)CC4)c3c2)cc1NS(=O)(=O)c1ccc(F)cc1F [Example 198, (E)-2,4-difluoro-N-(2-methoxy-5-(4-(1-(4-oxopent-2-enoyl)-1,2,3,6-tetrahydropyridin-4-yl)quinazolin-6-yl)pyridin-3-yl)benzenesulfonamide] | 10.7 nM | 8.7 nM | 12.2 nM | 22.1 nM
COc1ncc(-c2ccc3ncnc(C4=CCN(C(=O)/C=C/C(C)=O)CC4)c3c2)cc1NS(=O)(=O)c1sc(C)nc1C [Example 199, (E)-N-(2-methoxy-5-(4-(1-(4-oxopent-2-enoyl)-1,2,3,6-tetrahydropyridin-4-yl)quinazolin-6-yl)pyridin-3-yl)-2,4-dimethylthiazole-5-sulfonamide] | 19.1 nM | 41.1 nM | 12 nM | 21.7 nM
COc1ncc(-c2ccc3ncnc(C4=CCN(C(=O)/C=C/C(C)=O)CC4)c3c2)cc1NS(=O)(=O)c1ccccc1F [Example 200, (E)-2-fluoro-N-(2-methoxy-5-(4-(1-(4-oxopent-2-enoyl)-1,2,3,6-tetrahydropyridin-4-yl)quinazolin-6-yl)pyridin-3-yl)benzene-sulfonamide] | 4.3 nM | 40.5 nM | 10.9 nM | 6.5 nM
COc1ncc(-c2ccc3ncnc(C4=CCN(C(=O)/C=C/C(C)=O)CC4)c3c2)cc1NS(=O)(=O)c1c(F)cccc1F [Example 201, (E)-2,6-difluoro-N-(2-methoxy-5-(4-(1-(4-oxopent-2-enoyl)-1,2,3,6-tetrahydropyridin-4-yl)quinazolin-6-yl)pyridin-3-yl)benzenesulfonamide] | 11.1 nM | 31.9 nM | 7.2 nM | 5.3 nM
COc1ncc(-c2ccc3ncnc(C4=CCN(C(=O)/C=C/C(C)=O)CC4)c3c2)cc1NS(=O)(=O)c1c(F)cccc1Cl [Example 202, (E)-2-chloro-6-fluoro-N-(2-methoxy-5-(4-(1-(4-oxopent-2-enoyl)-1,2,3,6-tetrahydropyridin-4-yl)quinazolin-6-yl)pyridin-3-yl)benzene-sulfonamide] | 13 nM | 11.6 nM | 5.2 nM | 9.6 nM
COc1ncc(-c2ccc3ncnc(C4CCN(C(=O)/C=C/C(C)=O)CC4)c3c2)cc1NS(=O)(=O)c1sc(C)nc1C [Example 203, (E)-N-(2-methoxy-5-(4-(1-(4-oxopent-2-enoyl)piperidin-4-yl)quinazolin-6-yl)pyridin-3-yl)-2,4-dimethylthiazole-5-sulfonamide] | 16.7 nM | 51.4 nM | 8.5 nM | 5.4 nM
COc1ncc(-c2ccc3ncnc(C4CCN(C(=O)/C=C/C(C)=O)CC4)c3c2)cc1NS(=O)(=O)c1ccccc1F [Example 204, (E)-2-fluoro-N-(2-methoxy-5-(4-(1-(4-oxopent-2-enoyl)piperidin-4-yl)quinazolin-6-yl)pyridin-3-yl)benzenesulfonamide] | 45.8 nM | 115 nM | 25.2 nM | 47.1 nM
COc1ncc(-c2ccc3ncnc(C4CCN(C(=O)/C=C/C(C)=O)CC4)c3c2)cc1NS(=O)(=O)c1c(F)cccc1F [Example 205, (E)-2,6-difluoro-N-(2-methoxy-5-(4-(1-(4-oxopent-2-enoyl)piperidin-4-yl)quinazolin-6-yl)pyridin-3-yl) benzenesulfonamide] | 32.9 nM | 78.9 nM | 14.3 nM | 15.2 nM
COc1ncc(-c2ccc3ncnc(C4CCN(C(=O)/C=C/C(C)=O)CC4)c3c2)cc1NS(=O)(=O)c1c(F)cccc1Cl [Example 206, (E)-2-chloro-6-fluoro-N-(2-methoxy-5-(4-(1-(4-oxopent-2-enoyl)piperidin-4-yl)quinazolin-6-yl)pyridin-3-yl) benzenesulfonamide] | 6.9 nM | 21 nM | 8 nM | 9.5 nM
